Experimental data taken from patent US9981997B2, “Chemical reagents for attaching affinity molecules on surfaces” (ARIZONA BOARD OF REGENTS ON BEHALF OF ARIZONA STATE …, priority 2013, dated 2018).
Where “and” joins values, the source holds several entries; their conditions need not be identical. Identical values can stand only once.

Experiments:
[1] = AFM force measurement: non-specific interaction with bare mica; assay type: binding; conditions: bare mica substrate
Description: (§1) Non-specific interactions between functionalized AFM tips with both bare and bovine serum albumin (BSA) immobilized mica substrates were examined. The functionalized AFM tips generally formed featureless force-distance curves on these surfaces. Only 6.1% of collected curves show unbinding ruptures from the nonspecific TBA-BSA interaction (median force 14.4 pN) and 5.6% from the nonspecific RGD-BSA interaction (median force 15.3 pN) around the expected distance, respectively. The functionalized tips interacted with the bare mica surfaces with even lower statistics and smaller unbinding forces.
(§2) An Agilent AFM 5500 (with inverted light microscope) system was used for the AFM experiments. Both force measurement and recognition imaging were carried out in 1×PBS buffer (pH 7.4). For force measurements, Veeco probes (Bicker, SiN tips) were used, having a force constant 0.05 N/m and a gold back coating, and the loading rate was 25000 pN/s.
(§3) Topography images, recognition images and force spectra were recorded using Agilent PicoView software. The force-distance curves were analyzed in PicoView, and the corresponding unbinding forces were plotted in the form of histograms and fitted into the Gaussian function using MathWorks-MATLAB.

[2] = biological target: bovine serum albumin (BSA) (Bos taurus, UniProt P02769); assay: AFM force measurement: non-specific interaction with BSA immobilized mica; assay type: binding; conditions: BSA on the substrate (non-specific control)
Description: as §1
Freshly cleaved mica sheets (1.5×2.0 cm^2) were immersed in an aqueous solution of APS (50 mM). After one hour, the mica sheets were taken out and rinsed thoroughly with water thrice. In a humid surrounding, an aqueous solution of glutaraldehyde (1 mM, 200 μL) was added on the APS mica sheet. After 10 minutes, the mica substrates were rinsed with water thrice, and then a solution of protein in a 1×PBS buffer (3 μL) was placed on it, incubated for one hour, and rinsed with the 1×PBS buffer thrice. In general, protein concentrations were made around 10 ng/μL for force measurements and 0.05 ng/μL for recognition imaging. It should be noted that integrin we used was a lyophilized product from a solution containing: 0.26 mg/ml α5β1, 20 mM Tris-HCl pH 7.5, 150 mM NaCl, 2 mM MgCl2, 0.2% Triton X-100, which was reconstituted by dissolving it in 1×PBS buffer.
as §2, §3

human α-thrombin = biological target: T1, human α-thrombin (Homo sapiens, UniProt P00734); assay: AFM force measurement: unbinding of tip-tethered affinity molecule from thrombin immobilized on mica; assay type: binding
T1 construct: protein cognates human α-thrombin and human α5β1-integrin immobilized on mica surfaces; purchased Abeam (so in the source)
Description: (§4) The attachment chemistry was validated using the functionalized SiN tips to measure forces of affinity molecules unbinding from their respective protein cognates. The protein sample was immobilized on APS-modified mica substrate using glutaraldehyde as a crosslinker (for procedure, see Wang, et al. Biophys. J. 2002, 83, 3619-3625). Initially, about 1000 force-distance curves were collected from each of measurement experiments with either D-1b against thrombin or P-1b against integrin α5β1. The solid lines in Panel A and D of FIG. 14 show exemplary retracting force-distance curves used for data analysis, which accounts for more than one fourth of the collections. The selection was based on an assumption that a rupture directly related to unbinding of an affinity molecule from its protein cognate is likely to take place around the distance corresponding to the stretched length of a PEG linker (˜13.5 nm in this instance). A distance histogram was created from each data set (Panel B and E of FIG. 14). […] Ratios of the rupture events between these two regions were 1:1.2 for the TBA tip against the thrombin protein and 1:1.3 for the RGD tip against the integrin protein respectively. After finishing the initial measurements, a thrombin or integrin solution was injected to the flow cell accordingly, and then another set of force curves were collected to determine the specificity of unbinding (see, for example, Lee, et al. Micron 2007, 38, 446-461). A disappearance of the specific unbinding ruptures from the force-distance curves was anticipated because the interactions of the affinity molecule tethered to the tip with its cognates on the substrate were blocked by protein from the solution. In fact, force-distance curves were obtained appearing like the dotted lines in Panel A and D of FIG. 14. Overall, the ruptures around the longer distances were reduced to a great extent and those around the shorter distances remained (Panel C and F of FIG. 14) in comparison with those prior to blocking. The rupture ratios between these two regions were changed to 12.3:1 for the TBA tip against the thrombin modified surface and 12:1 for the RGD tip against the integrin modified surface.
(§5) AFM tips (a batch of four or five) were first immersed in ethanol for five minutes, dried with ultrapure argon, and then treated with ultraviolet-ozone in a Boekel UV cleaner for 15 minutes and oxygen plasma (medium power) in a Harrick Plasma Cleaner for 2 minutes. These tips were immediately placed in a petri dish, to which an aqueous solution of compound 3 (50 mM) was added. After one hour, the tips were taken out, rinsed with water thrice, and dried gently with nitrogen. […]

[3] = Stability of linkers, NMR monitoring and storage; assay type: physicochemical; conditions: for stability by NMR monitoring: pure form and in chloroform, room temperature, at least two days; for storage stability: stored at −78° C. for one year
Description: The molecular anchor (3) was synthesized simply by reacting APS (1) with 2-(cyclooct-2-yn-1-yloxy)acetic acid (2) in the presence of 1-ethyl-3-(3-dimethylaminopropyl)carbodiimide (EDC, FIG. 10). The desired product was separated as a white solid by silica gel chromatography with a yield of 60%. The molecular linker for RI (6a, FIG. 4) was synthesized starting from hexaethylene glycol. First, azido-(CH2CH2O)6-Ts (4, Ts=tosyl) was synthesized in a multi-gram scale (Loiseau, F. A. et al. J. Org. Chem. 2004, 69, 639-647; Svedhem, S.; et al. J. Org. Chem. 2001, 66, 4494-4503). The azido-(CH2CH2O)12—OH (5) was prepared in a 71% yield by reacting 4 with sodium hexaethylene glycoxide (3 times excess) that was generated in situ by treating hexaethylene glycol with sodium hydride. In presence of potassium t-butoxide, 5 reacted with divinyl sulfone to furnish the desired product 6a in a yield of 64%. In the same manner, the linker azido-(CH2CH2O)36-vinyl sulfone (6b) was synthesized by reacting azido-dPEG®—alcohol with divinyl sulfone in a yield close to that of 6a (FIG. 5). These two products were characterized with FTIR, NMR, and mass spectroscopy. Although vinyl sulfones may react with azides in presence of CuSO4 and sodium ascorbate, it was determined by NMR monitoring that 6a and 6b were stable both in its pure form and in chloroform at room temperature at least for two days. […] Maleimide is another reactive group that is functionally similar to vinyl sulfone in bioconjugation, but it may be less amenable to coexisting with azide because a [3+2]cycloaddition could spontaneously take place between these two functions in some circumstances. In addition, maleimide can undergo the thiol exchanges and ring hydrolysis (above pH 8), which may complicate outcomes of the conjugating reaction. Thus, vinyl sulfone was chosen as a Michael addition receptor of thiols in this attachment chemistry.

[4] = Ellipsometric thickness of monolayers on silicon oxide; assay type: physicochemical; conditions: organic layer on silicon oxide, ellipsometry
Method: (§6) A silicon substrate (1×1 cm2) was cleaned thoroughly with ethanol, dried by nitrogen, and then treated with oxygen plasma for two minutes using Harrick Plasma Cleaner (medium power). APTES was deposited on the substrate using a vapor deposition method (H. Wang, et al. Biophys. J., 2002, 83, 3619-3625). The aminated substrate was immersed in a solution of compound 2 (1 mg/mL). NHS/EDC (1 mg each) and triethyl amine (5 μL) in dry dicholoromethane. After three hours, the substrates were taken out and rinsed with dry dichloromethane (twice) followed by ethanol (twice) and dried with argon.
(§7) A silicon substrate (1×1 cm2) was cleaned as described with respect to reactions 1-a nd 1-b, and then immersed in an aq. solution of silatrane derivative 3 (50 mM). After one hour, the substrates were taken out and rinsed five times with deionized water and dried with argon.
(§8) Contact angles were measured using Kruss EasyDrop. For the measurement, 2 μL of water droplets were deposited on different positions of a substrate placed on the sample plate and contact angles were measured in the video window of manufacturer's DSA software. Thicknesses of the monolayers were measured using Gaertner Scientific Corporation ellipsometer. For the thickness calculation, the refractive indices of both silicon oxide layers and organic layers were assumed to be 1.46 (T. Nguyen et al. J. Adhesion, 1995, 48, 169-194). Five different arbitrary positions on the substrate were chosen and the average value was taken. The thickness of the monolayer was determined by subtracting the silicon oxide thickness from the measured one.

[5] = Water contact angle of derivatized silicon oxide surfaces; assay type: physicochemical; conditions: water on derivatized silicon oxide surface
Method: as §6, §7, §8

human α5β1 integrin = biological target: T2, human α5β1 integrin (Homo sapiens, UniProt P05556+P08648); assay: AFM force measurement: unbinding of tip-tethered affinity molecule from integrin immobilized on mica; assay type: binding
T2 construct: purchased YO Proteins AB (Sweden)
Description: as §4, §5

[6] = tip blocked with thrombin solution, thrombin on mica
[7] = tip blocked with integrin solution, integrin on mica

bovine serum albumin (BSA), sequence (P02769 25-607): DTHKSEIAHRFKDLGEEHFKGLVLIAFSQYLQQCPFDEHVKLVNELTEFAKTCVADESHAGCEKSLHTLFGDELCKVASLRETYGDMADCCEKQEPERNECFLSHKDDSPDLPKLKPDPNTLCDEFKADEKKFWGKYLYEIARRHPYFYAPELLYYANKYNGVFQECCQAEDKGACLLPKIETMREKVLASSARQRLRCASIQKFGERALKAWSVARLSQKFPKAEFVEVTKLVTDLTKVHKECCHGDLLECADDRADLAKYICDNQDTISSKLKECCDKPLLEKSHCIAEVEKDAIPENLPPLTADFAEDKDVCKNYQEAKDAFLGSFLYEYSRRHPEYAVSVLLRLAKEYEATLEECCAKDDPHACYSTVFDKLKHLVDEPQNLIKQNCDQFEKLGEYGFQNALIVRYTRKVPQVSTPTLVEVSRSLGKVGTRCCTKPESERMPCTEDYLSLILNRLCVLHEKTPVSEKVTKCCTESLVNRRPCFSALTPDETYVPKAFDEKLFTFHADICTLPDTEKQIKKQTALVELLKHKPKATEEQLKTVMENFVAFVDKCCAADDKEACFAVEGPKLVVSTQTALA
T2 sequence (P08648 42-894 limits assumed): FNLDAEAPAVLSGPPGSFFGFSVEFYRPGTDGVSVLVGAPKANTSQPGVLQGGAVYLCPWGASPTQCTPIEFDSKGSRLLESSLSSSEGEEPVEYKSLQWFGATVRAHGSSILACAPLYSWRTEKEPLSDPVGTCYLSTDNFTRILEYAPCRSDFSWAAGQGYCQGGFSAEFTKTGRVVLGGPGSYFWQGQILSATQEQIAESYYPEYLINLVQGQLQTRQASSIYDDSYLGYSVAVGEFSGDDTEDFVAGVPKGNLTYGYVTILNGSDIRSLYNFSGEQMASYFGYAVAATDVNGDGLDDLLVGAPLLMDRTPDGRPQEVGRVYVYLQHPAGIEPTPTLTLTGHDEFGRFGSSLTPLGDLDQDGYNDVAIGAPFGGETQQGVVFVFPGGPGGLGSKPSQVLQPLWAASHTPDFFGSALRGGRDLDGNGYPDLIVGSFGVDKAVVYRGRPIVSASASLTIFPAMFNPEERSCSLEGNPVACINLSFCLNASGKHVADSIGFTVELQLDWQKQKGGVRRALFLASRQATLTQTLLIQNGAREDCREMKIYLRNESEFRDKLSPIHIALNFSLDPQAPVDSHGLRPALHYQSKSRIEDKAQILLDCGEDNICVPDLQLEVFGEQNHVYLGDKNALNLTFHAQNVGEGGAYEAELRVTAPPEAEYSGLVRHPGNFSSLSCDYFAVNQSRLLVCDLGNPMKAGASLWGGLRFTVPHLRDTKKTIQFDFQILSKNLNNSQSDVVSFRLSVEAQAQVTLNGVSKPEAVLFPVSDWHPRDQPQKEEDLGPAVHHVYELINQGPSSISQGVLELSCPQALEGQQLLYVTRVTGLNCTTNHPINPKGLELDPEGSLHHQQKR
T2 sequence (P08648 895-1049 partner limits assumed): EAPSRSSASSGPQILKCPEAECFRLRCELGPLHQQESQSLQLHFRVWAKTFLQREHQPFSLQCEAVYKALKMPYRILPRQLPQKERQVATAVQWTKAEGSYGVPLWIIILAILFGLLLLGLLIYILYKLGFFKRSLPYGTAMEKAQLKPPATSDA
T2 sequence (P05556 21-798): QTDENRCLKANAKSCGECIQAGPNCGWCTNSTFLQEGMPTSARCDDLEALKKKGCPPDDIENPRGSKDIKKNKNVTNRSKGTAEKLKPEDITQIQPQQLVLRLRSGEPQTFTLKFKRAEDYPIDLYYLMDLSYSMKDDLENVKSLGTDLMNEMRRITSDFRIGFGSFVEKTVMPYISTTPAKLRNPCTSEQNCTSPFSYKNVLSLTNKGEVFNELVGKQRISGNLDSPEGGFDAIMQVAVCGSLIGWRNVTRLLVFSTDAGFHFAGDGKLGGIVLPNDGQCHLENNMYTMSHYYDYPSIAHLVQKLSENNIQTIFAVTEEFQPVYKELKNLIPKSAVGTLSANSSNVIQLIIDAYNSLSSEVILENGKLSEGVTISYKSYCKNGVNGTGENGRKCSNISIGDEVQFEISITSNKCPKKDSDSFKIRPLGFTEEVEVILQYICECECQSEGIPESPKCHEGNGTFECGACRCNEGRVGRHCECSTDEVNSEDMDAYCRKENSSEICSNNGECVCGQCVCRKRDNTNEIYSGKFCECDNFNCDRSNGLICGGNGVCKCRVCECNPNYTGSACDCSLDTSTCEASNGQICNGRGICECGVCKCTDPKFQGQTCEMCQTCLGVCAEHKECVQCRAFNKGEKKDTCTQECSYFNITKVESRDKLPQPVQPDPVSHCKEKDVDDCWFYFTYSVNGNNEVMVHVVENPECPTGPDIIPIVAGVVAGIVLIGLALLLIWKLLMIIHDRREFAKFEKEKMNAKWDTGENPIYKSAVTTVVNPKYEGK

## 5′-GGTTGGTGTGGTTGG [TBA]
[1]
  Unbinding events (%): 3.0%
  Unbinding force (pN): 6.9 ± 3.8 pN
[2]
  Unbinding events (%): 6.1%
  Unbinding force (pN): 14.4 pN and 14.4 ± 9.4 pN
Human α-thrombin; functionalized SiN tip against thrombin on mica, Gaussian fit of force histogram, loading rate 25000 pN/s
  Unbinding force (pN): 80.2 ± 34.5 pN
Human α-thrombin; functionalized SiN tip against thrombin on mica, ruptures around the specific unbinding distance over total force curves
  Unbinding events (%): 26.5%
Human α-thrombin; [6]
  Unbinding events (%): 7.0%
  Unbinding force (pN): 15.6 ± 12.9 pN

## C=CS(=O)(=O)CCOCCOCCOCCOCCOCCOCCOCCOCCOCCOCCOCCOCCN=[N+]=[N-] [6a, 1-Azido-35-(2-(vinylsulfonyl)ethoxy)-3n33^3-undecaoxapentatriacontane]
[3]
  stability by NMR monitoring: stable
  storage stability: no degradation has been observed

## C=CS(=O)(=O)CCOCCOCCOCCOCCOCCOCCOCCOCCOCCOCCOCCOCCOCCOCCOCCOCCOCCOCCOCCOCCOCCOCCOCCOCCOCCOCCOCCOCCOCCOCCOCCOCCOCCOCCOCCOCCN=[N+]=[N-] [6b, 1-Azido-35-(2-(vinylsulfonyl)ethoxy)-3n105^3-pentatricontaoxaheptahectane]
[3]
  stability by NMR monitoring: stable
  storage stability: no degradation has been observed

## CCO[Si](CCCN)(OCC)OCC [APTES, (3-Arninopropyl)triethoxysilane]
[4]
  Thickness (Å): about 7.3 Å
[5]
  Contact Angle (°): ~46 °

## O=C(O)COC1C#CCCCCC1 (centres unmarked) [compound 2, 2-(cyclooct-2-yn-1-yloxy)acetic acid]
[4]
  Thickness (Å): ~15.9 Å
[5]
  Contact Angle (°): 76 °

## O=C(COC1C#CCCCCC1)NCCC[Si-]123OCC[N+]1(CCO2)CCO3 (centres unmarked) [compound 3, N-(3-(silatranyl)propyl)-2-(cyclooct-2-yn-1-yloxy)acetamide]
[4]
  Thickness (Å): 15.3 Å
[5]
  Contact Angle (°): ~78 °

## cyclo(RGDfC)
Human α5β1 integrin; functionalized SiN tip against integrin on mica
  Unbinding events (%): 29.4%
Human α5β1 integrin; functionalized SiN tip against integrin on mica, Gaussian fit, loading rate 25000 pN/s
  Unbinding force (pN): 48.0 ± 27.8 pN
Human α5β1 integrin; [7]
  Unbinding events (%): 6.7%
  Unbinding force (pN): 11.1 ± 10.7 pN
[1]
  Unbinding events (%): 2.5%
  Unbinding force (pN): 6.7 ± 4.0 pN
[2]
  Unbinding events (%): 5.6%
  Unbinding force (pN): 15.3 pN and 15.3 ± 14.4 pN
